Biological target: T1, Aβ42-SYP interaction (Homo sapiens, UniProt P08247)
T1 construct: His6; made in house; host or cells: insect cells (SYP)
Assay: SPR binding of Aβ42 to SYP in the presence of cholesterol hemisuccinate
Settings: increasing concentrations of cholesterol hemisuccinate
Experimental: Surface Plasmon Resonance: Binding studies were performed on a Biacore 3000 or a BiOptix 404 pi, with similar results. For the Biacore, a CMS chip was used and for the BiOptix instrument, a CMV150 chip was employed. […] Recombinant human SYP, containing a His(6)-tag expressed in insect cells, was a gift of J. Mapes and A. DeFazio at CU Boulder. Bovine serum albumin (Sigma, St. Louis, Mo.), Interleukin 1 receptor antagonist (gift of Synergen, Inc., Boulder, Colo.), and SLC35F1 (gift of G. Chang, UCSD) were used as control proteins. Binding at a flow rate of 20 μl/min was in 0.15M sodium chloride, 0.03M sodium HEPES, pH 7.4, 0.009% Fos-choline 14 (Anatrace, Santa Clara, Calif.) for all samples.
We therefore asked if cholesterol inhibits the Aβ42-SYP interaction.

T1 sequence (P08247 whole entry): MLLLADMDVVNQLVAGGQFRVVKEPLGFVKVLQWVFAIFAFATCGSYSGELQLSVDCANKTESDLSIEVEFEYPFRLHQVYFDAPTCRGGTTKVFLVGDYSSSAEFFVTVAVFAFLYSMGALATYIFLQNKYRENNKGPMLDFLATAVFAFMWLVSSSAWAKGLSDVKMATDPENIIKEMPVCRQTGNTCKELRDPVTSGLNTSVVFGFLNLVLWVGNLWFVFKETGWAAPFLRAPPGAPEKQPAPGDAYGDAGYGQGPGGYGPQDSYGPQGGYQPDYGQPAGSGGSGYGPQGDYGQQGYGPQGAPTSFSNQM

Substance: cholesterol hemisuccinate
- inhibition of binding of Aβ42 to SYP: robust concentration dependent inhibition of binding

Source: patent US10233222B2, “Methods, compositions, diagnostics and assays for the treatment of Alzheimer's disease” (priority 2014, dated 2019)
